Biological target: URAT1 (Homo sapiens (Human), UniProt Q96S37)
Test: Uptake of [14C] uric acid using HEK-URAT1
Format: cell-based
Details: 2 min; [14C] uric acid uptake into URAT1 stably expressed HEK293 cells, 10 μM test compound, 5 μM uric acid, 2 minutes, 37° C.; uptake without test compound = 100%; read-out: % control (10 μM)
Procedure: More specifically, the test is performed by culturing URAT1 stably expressed HEK293 cells (HEK-URAT1) or HEK293 cells transfected with empty vector (HEK-mock) in a DMEM culture medium in an incubator. Subsequently, 1×10^5 cells are respectively seeded in 24-well culture plate coated with poly D-lysine and the uptake test is started after the culturing.
The cells are washed with a solution for a test warmed to 37° C. and equilibrated. After a buffer solution is removed from the cells, 0.5 mL of an uptake solution containing 5 μM [^14C] uric acid with or without a test compound is respectively added and the cells are incubated. The cell uptake is stopped by adding a Hanks buffer solution and the cells are washed. The cells are lysed with 0.1 N sodium hydroxide and the radioactivity is measured using LSC6100 (Aloka Co., Ltd. Tokyo). Each uptake into HEK-URAT1 is acquired by subtracting uptake into HEK-mock cells from the value of HEK-URAT1, converting the result to per mg protein of cells, and setting the values from the uptake without the test compound as 100%.
URAT1 stably expressed HEK293 cells (HEK-URAT1) or HEK293 cells transfected with empty vector (HEK-mock) were cultured in DMEM culture medium supplemented with 10% fetal bovine serum in an incubator under conditions of 5% carbon dioxide at 37° C. Subsequently, 1×10^5 cells were respectively seeded in 24-well culture plate coated with poly D-lysine and the uptake test was started after the culturing for 3 days.
The uptake experiment of uric acid was performed at 37° C. […] After a buffer solution was removed from the cells, 0.5 mL of an uptake solution containing 5 μM [^14C] uric acid with or without a test compound was respectively added and the cells were incubated for 2 minutes. The cell uptake was stopped by adding an ice-cold Hanks buffer solution without chloride ions and the cells were washed 3 times. The cells were lysed with 0.1 N sodium hydroxide and the radioactivity was measured using LSC6100 (Aloka Co., Ltd. Tokyo). Each uptake into HEK-URAT1 was acquired by subtracting uptake into HEK-mock cells from the value of HEK-URAT1, converting the result to per mg protein of cells, and setting the value from uptake without the test compound as 100%. The uptake in each condition was performed in triplicate and each value was represented by average±standard deviation.
The URAT1 inhibitory action was measured according to the same method as in Example 118.

URAT1, sequence (Q96S37 whole entry): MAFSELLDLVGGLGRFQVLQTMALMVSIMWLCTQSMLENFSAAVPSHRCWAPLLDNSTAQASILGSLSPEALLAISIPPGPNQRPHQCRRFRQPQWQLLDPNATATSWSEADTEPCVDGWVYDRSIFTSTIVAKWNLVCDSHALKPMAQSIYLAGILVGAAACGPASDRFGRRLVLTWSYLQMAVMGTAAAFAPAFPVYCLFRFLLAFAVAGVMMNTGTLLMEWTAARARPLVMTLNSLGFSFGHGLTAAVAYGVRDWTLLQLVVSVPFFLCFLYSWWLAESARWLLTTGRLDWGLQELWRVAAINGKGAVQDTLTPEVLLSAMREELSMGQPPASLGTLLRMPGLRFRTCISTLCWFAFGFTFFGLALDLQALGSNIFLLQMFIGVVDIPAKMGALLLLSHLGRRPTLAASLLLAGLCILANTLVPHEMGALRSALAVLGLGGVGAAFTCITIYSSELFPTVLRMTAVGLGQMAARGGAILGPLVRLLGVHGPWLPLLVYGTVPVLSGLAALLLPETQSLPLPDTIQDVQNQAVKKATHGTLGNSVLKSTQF

remaining activity at 10 µM: 48.7%
Structure (SMILES): N#Cc1ccc(-c2c(O/C=C/C(=O)O)ccc3ncsc23)cc1 [Example 21, (E)-3-[[7-(4-cyanophenyl)benzo[d]thiazol-6-yl]oxy]acrylic acid]

Source: patent publication US10173990B2, “URAT1 inhibitor” (Nippon Chemiphar Co., Ltd., priority 2014, dated 2019)
